Active and inactive are the calls of the source.
Key:
[1] = growth suppression of beta-catenin-knockout colon cells, dose response, cell-based, HCT116, human colon tumor (AID 1045); type: functional;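 also: HCT116 colon tumor cells with beta catenin knocked out; cells exposed to compound for 60 hours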
[2] = nonselective inhibitors of cellular cAMP signaling, dose response, counter-screen for MC4R biased antagonist project, cell-based, TR-FRET cAMP detection (AID 602305); type: functional;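 also: U2OS cells stimulated with forskolin near its EC80 as the cAMP inducer; potency is for inhibition of forskolin-stimulated cAMP signaling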
[3] = growth suppression of PTEN-null colon cells, dose response, cell-based, HCT116 PTEN knockout (AID 1047); type: functional;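 also: HCT116 colon tumor cells with PTEN knocked out; cells exposed to compound for 60 hours before readout; potency for loss of cell viability measured by luminescence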
[4] = target: Glycogen synthase kinase-3 alpha (Homo sapiens, UniProt P49840); assay: Inhibition of Human GSK-3 alpha Activity Measured in Biochemical System Using Microfluidics - 2063-06_Inhibitor_Dose_DryPowder_Activity_Set2. [Related pubchem assays (depositor defined):AID2709]
[5] = target: Melanocortin receptor 4 (Homo sapiens, UniProt P32245); assay: MC4R antagonist potency on cAMP, dose response, cell-based, TR-FRET, biased antagonists (AID 602298); type: functional;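 also: antagonist potency against agonist-stimulated cAMP production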
Chain of Melanocortin receptor 4 (P32245 whole entry): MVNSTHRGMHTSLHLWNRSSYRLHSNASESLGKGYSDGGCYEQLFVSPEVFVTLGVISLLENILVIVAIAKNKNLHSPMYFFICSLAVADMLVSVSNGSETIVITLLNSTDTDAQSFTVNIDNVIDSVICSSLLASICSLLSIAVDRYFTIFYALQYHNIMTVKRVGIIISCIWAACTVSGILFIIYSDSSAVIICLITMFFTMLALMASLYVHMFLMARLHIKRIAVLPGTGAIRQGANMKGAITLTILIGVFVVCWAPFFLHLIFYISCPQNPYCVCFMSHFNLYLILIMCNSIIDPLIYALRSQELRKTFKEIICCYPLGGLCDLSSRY

[6] = target: Dual specificity protein kinase CLK1 (Homo sapiens, UniProt P49759); assay: CLK1 kinase inhibitors, off-target check, dose response, selectivity assay for Dyrk1A inhibitor project, biochemical, cherry-picked samples (AID 588811)
Chain of Dual specificity protein kinase CLK1 (P49759 whole entry): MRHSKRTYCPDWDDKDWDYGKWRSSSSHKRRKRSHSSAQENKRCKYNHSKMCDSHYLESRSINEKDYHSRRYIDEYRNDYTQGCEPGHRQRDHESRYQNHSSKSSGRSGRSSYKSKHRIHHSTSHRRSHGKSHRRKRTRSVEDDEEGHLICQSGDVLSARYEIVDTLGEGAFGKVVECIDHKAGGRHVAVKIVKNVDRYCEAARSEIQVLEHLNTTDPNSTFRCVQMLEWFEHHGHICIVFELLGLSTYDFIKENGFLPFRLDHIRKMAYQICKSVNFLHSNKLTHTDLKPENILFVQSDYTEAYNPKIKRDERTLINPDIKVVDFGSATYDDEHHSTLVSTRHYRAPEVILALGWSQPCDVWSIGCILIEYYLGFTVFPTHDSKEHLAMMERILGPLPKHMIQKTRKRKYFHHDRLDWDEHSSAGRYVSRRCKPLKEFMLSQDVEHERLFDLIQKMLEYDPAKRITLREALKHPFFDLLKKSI

[7] = target: Dual specificity tyrosine-phosphorylation-regulated kinase 1A (Rattus norvegicus, UniProt Q63470); type: biochemical, Homo sapiens
[8] = target: Glycogen synthase kinase-3 beta (Homo sapiens, UniProt P49841); assay: Inhibition of Human GSK-3 beta Activity Measured in Biochemical System Using Microfluidics - 2063-05_Inhibitor_Dose_DryPowder_Activity_Set2. [Related pubchem assays (depositor defined):AID2709]
Chain of Glycogen synthase kinase-3 beta (P49841 whole entry): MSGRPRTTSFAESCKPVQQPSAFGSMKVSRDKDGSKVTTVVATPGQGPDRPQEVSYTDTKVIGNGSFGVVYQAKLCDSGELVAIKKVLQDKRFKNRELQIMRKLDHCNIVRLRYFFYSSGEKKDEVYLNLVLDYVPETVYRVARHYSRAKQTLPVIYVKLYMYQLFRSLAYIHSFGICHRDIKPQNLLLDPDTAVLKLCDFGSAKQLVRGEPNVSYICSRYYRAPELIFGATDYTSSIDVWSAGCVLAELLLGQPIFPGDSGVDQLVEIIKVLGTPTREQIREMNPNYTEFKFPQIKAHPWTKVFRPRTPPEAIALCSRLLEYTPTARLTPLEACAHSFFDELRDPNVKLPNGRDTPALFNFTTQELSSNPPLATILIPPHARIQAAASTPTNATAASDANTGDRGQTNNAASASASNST

[9] = target: T1, High affinity choline transporter 1 (Homo sapiens, UniProt Q9GZV3); assay: CHT inhibitors, dose response, cell-based, 5-point CRC, membrane potential dye (AID 504840); type: functional
T1 sequence (Q9GZV3 whole entry): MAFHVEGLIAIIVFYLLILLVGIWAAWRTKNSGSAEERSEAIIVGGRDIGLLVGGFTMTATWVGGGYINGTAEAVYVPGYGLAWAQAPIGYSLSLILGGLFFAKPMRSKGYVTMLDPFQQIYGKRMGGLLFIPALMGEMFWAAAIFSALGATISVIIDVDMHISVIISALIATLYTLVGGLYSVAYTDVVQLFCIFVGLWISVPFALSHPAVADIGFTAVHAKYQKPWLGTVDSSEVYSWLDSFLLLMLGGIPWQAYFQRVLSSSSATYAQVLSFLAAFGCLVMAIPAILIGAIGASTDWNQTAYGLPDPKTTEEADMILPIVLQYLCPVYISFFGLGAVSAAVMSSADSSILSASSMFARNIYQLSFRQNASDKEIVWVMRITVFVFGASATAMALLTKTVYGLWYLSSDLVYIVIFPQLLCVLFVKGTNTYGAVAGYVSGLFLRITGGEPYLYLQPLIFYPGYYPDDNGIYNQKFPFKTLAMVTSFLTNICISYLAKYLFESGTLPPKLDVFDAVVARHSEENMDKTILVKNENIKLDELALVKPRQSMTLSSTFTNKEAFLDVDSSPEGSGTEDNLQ

[10] = target: T1, High affinity choline transporter 1; assay: CHT inhibitors, dose response, cell-based, 10-point CRC, membrane potential dye (AID 588401); type: functional;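 also: membrane potential dye fluorescence of choline-evoked depolarization via CHT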
[11] = MC4R antagonists, dose response, counter-screen for LGR2 antagonist project, cell-based, plate reader, cherry pick (AID 743444); type: functional;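 also: transfected HEK 293 cells stimulated with alpha-MSH peptide; potency of inhibitors of the alpha-MSH evoked signal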
[12] = ZM109 Env clade C HIV-1 fusion inhibitors, dose response, HeLa effector, CEM target cells, luciferase, cherry-pick (AID 652058); type: functional, cell-based
[13] = cytotoxicity in HEK-293T NF-kB-Luc cells, dose response, cytotoxicity control for B/T-cell NF-kB inhibitor project, cell-based, uHTS hits (AID 489019); type: functional;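 also: IC50 reflects cytotoxicity as loss of cell viability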
[14] = inhibitors of clade B AD8 Env fusion, dose response, cell-based, cherry-pick (AID 652062); type: functional;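 also: luciferase signal from cell-cell fusion driven by HIV-1 clade B AD8 Env; potency is for inhibitors of fusion seen as a drop in luminescence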
[15] = LGR2 antagonists, dose response, cell-based, HEK293, CRE-luciferase reporter, cherry pick, set 2 (AID 743343); type: functional;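 also: transfected cells were stimulated with diluted bursicon conditioned medium after compound addition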
[16] = system: H4; assay: inhibitors of control reporter signal in H4 cells – cell-based, plate reader, dry powder samples, counter-screen for prion reporter project, dose response (AID 540255); type: functional; conditions: Homo sapiens
[17] = system: H4; assay: Amyloid Precursor 5' UTR neuroblastoma cell reporter line Measured in Cell-Based System Using Plate Reader - 2078-04_Inhibitor_Dose_DryPowder_Activity. [Related pubchem assays (depositor defined):AID488894]; type: functional; conditions: Homo sapiens
[18] = off-target signal loss in HeLa-CEM21 co-culture – HeLa F-luc CTL cells, cherry-picked, counter-screen for HIV-1 Env fusion inhibitor project, dose response (AID 652040); type: functional, cell-based;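 also: potency for signal decrease marking cytotoxic or nonspecific inhibition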
[19] = system: Jurkat; assay: antigen receptor-induced NF-kB inhibitors, dose response, Jurkat, luciferase reporter, luminescence, B- and T-cell (AID 489004); type: functional, cell-based; conditions: Homo sapiens;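 also: NF-kB luciferase reporter Jurkat cells stimulated with PMA plus ionomycin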
[20] = target: Paired box protein Pax-8 (Homo sapiens, UniProt Q06710); assay: inhibitors of PAX8-driven TPO luciferase reporter, dose response, RMG-I cells, cherry-pick (AID 687027); type: functional, cell-based;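 also: luciferase reporter driven by Pax8 target thyroperoxidase promoter measured by SteadyGlo luminescence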
Chain of Paired box protein Pax-8 (Q06710 whole entry): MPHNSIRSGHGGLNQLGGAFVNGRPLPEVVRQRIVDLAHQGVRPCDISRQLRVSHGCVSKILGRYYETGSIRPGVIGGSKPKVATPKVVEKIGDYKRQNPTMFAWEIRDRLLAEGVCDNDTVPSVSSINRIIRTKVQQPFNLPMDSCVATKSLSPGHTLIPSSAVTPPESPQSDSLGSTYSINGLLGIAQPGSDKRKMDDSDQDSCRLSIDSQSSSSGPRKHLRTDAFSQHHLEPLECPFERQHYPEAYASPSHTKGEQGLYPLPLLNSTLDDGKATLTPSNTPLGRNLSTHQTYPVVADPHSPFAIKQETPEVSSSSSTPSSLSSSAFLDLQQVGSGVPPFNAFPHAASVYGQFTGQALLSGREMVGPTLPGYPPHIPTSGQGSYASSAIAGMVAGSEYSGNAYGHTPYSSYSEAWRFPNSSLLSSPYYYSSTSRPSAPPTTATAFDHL

[21] = Luminescence-based counterscreen assay for KLF5 inhibitors: dose response cell-based high throughput screening assay to identify cytotoxic compounds using the IEC-6 intestinal epithelial cell line. [Related pubchem assays: 1700 (Primary screen.), 1834 (Confirmation screen.), 1858 (Summary AID.), 1905 (Counterscreen.)]; type: functional
[22] = target: Luciferin 4-monooxygenase (Photinus pyralis, UniProt P08659); assay: firefly luciferase enzyme inhibitors, dose response, biochemical, dry powder samples, plate reader (AID 588451)
[23] = inhibitors of HIV Env-driven cell fusion, dose response, cherry-pick (AID 652057); type: functional, cell-based
[24] = system: H4; assay: Inhibitors of Prion Protein 5' UTR mRNA Measured in Cell-Based System Using Plate Reader - 2078-01_Inhibitor_Dose_DryPowder_Activity. [Related pubchem assays (depositor defined):AID488894]; type: functional; conditions: Homo sapiens
[25] = target: Multidrug resistance protein CDR1 (Candida albicans, UniProt P43071); assay: CaCdr1 efflux pump inhibitor potency, dose response, singleplex, Cherry Pick2 set (AID 623996); type: functional; conditions: read-out: EC50_MICROM
Chain of Multidrug resistance protein CDR1 (P43071 whole entry, looked up): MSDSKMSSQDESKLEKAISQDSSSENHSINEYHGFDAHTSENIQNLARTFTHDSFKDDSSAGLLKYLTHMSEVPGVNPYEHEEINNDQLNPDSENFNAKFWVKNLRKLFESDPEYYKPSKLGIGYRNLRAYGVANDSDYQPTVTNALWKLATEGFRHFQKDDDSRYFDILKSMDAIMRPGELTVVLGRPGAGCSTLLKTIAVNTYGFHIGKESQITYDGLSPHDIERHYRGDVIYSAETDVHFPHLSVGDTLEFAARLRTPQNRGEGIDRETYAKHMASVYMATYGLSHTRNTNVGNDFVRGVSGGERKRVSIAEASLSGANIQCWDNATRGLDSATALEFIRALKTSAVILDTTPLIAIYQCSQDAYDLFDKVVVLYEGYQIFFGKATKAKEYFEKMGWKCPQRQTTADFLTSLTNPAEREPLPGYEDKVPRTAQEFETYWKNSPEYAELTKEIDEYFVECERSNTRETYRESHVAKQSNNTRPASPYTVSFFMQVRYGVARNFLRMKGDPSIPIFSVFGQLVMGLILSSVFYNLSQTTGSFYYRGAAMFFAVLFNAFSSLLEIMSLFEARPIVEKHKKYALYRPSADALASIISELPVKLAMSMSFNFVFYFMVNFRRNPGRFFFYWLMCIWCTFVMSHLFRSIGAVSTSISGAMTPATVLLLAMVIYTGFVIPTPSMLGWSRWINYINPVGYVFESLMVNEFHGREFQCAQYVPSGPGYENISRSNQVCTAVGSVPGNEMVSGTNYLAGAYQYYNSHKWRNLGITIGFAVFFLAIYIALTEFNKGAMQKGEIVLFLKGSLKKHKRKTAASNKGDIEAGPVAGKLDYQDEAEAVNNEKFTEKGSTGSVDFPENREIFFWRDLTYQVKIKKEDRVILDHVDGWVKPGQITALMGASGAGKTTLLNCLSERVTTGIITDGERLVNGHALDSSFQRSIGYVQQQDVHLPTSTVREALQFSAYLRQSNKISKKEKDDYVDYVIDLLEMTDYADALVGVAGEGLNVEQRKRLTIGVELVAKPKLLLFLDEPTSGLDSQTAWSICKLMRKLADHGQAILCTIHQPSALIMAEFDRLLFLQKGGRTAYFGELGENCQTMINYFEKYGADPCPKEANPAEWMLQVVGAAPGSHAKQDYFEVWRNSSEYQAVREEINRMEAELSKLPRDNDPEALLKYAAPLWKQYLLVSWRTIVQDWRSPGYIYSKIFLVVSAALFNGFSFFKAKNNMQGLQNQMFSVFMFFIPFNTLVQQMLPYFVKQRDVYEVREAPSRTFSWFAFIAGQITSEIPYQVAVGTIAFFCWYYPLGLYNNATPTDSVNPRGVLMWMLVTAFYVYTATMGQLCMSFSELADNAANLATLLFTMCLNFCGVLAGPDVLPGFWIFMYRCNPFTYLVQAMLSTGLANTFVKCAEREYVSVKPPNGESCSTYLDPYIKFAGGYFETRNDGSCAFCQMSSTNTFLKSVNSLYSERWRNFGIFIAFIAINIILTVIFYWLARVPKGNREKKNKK

[26] = target: Benomyl/methotrexate resistance protein (Candida albicans, UniProt P28873); assay: CaMdr1 efflux pump inhibitor potency, dose response, singleplex, Cherry Pick1 hits (AID 588608); type: functional
Chain of Benomyl/methotrexate resistance protein (P28873 whole entry): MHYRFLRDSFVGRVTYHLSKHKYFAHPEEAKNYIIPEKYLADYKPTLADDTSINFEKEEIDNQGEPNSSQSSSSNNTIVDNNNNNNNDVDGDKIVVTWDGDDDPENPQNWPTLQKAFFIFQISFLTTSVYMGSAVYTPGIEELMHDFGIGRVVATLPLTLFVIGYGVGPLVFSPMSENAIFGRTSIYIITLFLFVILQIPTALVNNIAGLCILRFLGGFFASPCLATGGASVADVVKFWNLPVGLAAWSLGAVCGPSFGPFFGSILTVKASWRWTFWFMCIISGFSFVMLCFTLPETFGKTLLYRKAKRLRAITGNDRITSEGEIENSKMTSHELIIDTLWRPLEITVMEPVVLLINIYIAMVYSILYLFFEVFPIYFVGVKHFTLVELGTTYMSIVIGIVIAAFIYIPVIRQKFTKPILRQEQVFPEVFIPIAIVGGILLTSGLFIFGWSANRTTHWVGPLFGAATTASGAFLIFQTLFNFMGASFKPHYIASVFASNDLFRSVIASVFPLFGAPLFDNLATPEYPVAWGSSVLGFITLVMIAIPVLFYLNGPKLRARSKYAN

[27] = target: Platelet-activating factor acetylhydrolase 2, cytoplasmic (Mus musculus, UniProt Q8VDG7); assay: Late stage assay provider results from the probe development effort to identify inhibitors of PAFAH2: Fluorescence-based biochemical gel-based Activity-Based Protein Profiling (ABPP) IC50. [Related pubchem assays (depositor defined):AID492956, AID492969, AID493030]
Chain of Platelet-activating factor acetylhydrolase 2, cytoplasmic (Q8VDG7 whole entry): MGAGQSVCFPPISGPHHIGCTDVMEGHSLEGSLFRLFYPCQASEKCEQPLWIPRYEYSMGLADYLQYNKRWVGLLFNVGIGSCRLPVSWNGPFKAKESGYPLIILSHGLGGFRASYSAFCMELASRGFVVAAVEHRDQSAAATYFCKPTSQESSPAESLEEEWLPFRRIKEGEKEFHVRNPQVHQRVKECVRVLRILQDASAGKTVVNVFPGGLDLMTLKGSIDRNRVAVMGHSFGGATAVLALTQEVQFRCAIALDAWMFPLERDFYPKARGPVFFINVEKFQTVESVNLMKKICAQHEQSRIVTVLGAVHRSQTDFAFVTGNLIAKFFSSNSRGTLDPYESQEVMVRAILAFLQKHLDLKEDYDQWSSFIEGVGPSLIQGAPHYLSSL

[28] = system: INS1; assay: inhibitors of cytokine-induced nitrite release, dose response, cell-based, Griess absorbance, INS-1E, dry powder, set 2 (AID 488868); type: functional; conditions: Rattus norvegicus
[29] = system: INS1; assay: protection of INS-1E cells from cytokine death, dose response, ATP luminescence, dry powder (AID 488844); type: functional, cell-based; conditions: Rattus norvegicus
[30] = THP-1 cell cytotoxicity, dose response, cytotoxicity control, set 3 (AID 504852); type: functional; conditions: Mycobacterium tuberculosis
[31] = THP-1 cell cytotoxicity, cytotoxicity control, set 4 (AID 504911); type: functional; conditions: Mycobacterium tuberculosis
[32] = target: Phosphorylase b kinase gamma catalytic chain, liver/testis isoform (Homo sapiens, UniProt P15735); type: functional;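 also: PHKG2 measured as one member of a kinome-wide kinase panel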
Chain of Phosphorylase b kinase gamma catalytic chain, liver/testis isoform (P15735 whole entry, canonical isoform): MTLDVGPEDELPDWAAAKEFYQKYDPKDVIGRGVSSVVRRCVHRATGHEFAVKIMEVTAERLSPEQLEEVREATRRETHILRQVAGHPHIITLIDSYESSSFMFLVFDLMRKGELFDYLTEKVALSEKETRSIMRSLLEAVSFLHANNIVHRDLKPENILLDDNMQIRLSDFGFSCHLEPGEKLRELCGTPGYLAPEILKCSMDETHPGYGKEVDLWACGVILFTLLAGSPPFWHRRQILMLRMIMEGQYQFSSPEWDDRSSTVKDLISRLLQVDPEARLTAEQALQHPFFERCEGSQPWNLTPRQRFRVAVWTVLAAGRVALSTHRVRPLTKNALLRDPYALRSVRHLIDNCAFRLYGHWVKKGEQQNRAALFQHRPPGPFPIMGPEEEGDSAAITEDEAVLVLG

[33] = target: T2, Endoribonuclease toxin MazF (Escherichia coli K-12, UniProt P0AE70); assay: fluorescent RNA oligo signal without MazF, dose response, counter-screen for MazEF activator project, biochemical, fluorescence, single-stranded RNase substrate (AID 588502); type: functional
T2 sequence (P0AE70 whole entry): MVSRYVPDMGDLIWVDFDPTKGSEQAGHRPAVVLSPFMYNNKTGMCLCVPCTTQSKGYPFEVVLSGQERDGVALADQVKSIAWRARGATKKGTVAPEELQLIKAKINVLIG

[34] = target: Beta Lactamase (Pseudomonas aeruginosa, UniProt Q932Y6); assay: beta-lactamase reporter inhibitor potency, dose response, artefact control for TLR9-MyD88 binding inhibitor project, BLA reporter cells, FRET fluorescence (AID 588341); type: cell-based;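 also: cell based assay in CHO-K1 cells stably expressing beta-lactamase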
Chain of Beta Lactamase (Q932Y6 whole entry, the tested form may be a part): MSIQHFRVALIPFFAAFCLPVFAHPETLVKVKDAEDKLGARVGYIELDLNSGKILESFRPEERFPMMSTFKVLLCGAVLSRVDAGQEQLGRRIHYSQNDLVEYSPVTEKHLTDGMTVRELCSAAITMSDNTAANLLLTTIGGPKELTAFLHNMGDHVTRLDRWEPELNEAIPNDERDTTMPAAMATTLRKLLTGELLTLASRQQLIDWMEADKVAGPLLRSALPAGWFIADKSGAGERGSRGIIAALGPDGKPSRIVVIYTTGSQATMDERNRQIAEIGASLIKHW

[35] = system: CHO; assay: cytotoxicity in TLR9-MyD88 CHO cells, dose response, cytotoxicity control for TLR9-MyD88 binding inhibitor project, cell-based, luminescence (AID 588339); type: functional, hamster; conditions: Cricetulus griseus;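 also: CHO cells stably coexpressing TLR9 and MyD88 fusions from primary screen; compound exposure lasted 48 hours before viability readout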
[36] = target: T2, Endoribonuclease toxin MazF; assay: MazF toxin RNase activators, dose response, biochemical, fluorescence, single-stranded RNA substrate, uHTS hits (AID 588481); type: functional
[37] = system: BJ; assay: cytotoxicity toward BJ-TERT fibroblasts, dose response, cell-based, RAS-independent, luminescence (AID 1933); type: functional; conditions: Homo sapiens
[38] = cytotoxicity toward DRD oncogenic fibroblasts, dose response, cell-based, non-viral oncogenic, luminescence (AID 1934); type: functional; conditions: Homo sapiens
[39] = system: BJ; assay: cytotoxicity toward Ras-transformed BJeLR fibroblasts, dose response, cell-based, alamar blue fluorescence, cherrypicked samples (AID 2631); type: functional; conditions: Homo sapiens;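 also: confirmatory dose-response assay in RAS-dependent BJ fibroblasts engineered with TERT, LT and ST, with cytotoxicity read by fluorescence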
[40] = system: BJ; assay: cytotoxicity toward BJ-TERT-LT-ST fibroblasts, dose response, cell-based, RAS-independent, luminescence (AID 1935); type: functional; conditions: Homo sapiens;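 also: BJ fibroblasts immortalized with TERT plus LT and ST oncogenes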
[41] = system: BJ; assay: cells; type: functional, cell-based; conditions: Homo sapiens

CCOC(=O)c1ccc2ncc(C(=O)OCC)c(Nc3ccc(N4CCOCC4)cc3)c2c1
EC50 [1]: 21.4 µM (active)
IC50 [2]: > 64.6 µM (inactive)
EC50 [3]: 18.5 µM (active)
AC50 [4]: 3.56 µM (active)
IC50 [5]: 8.67 µM (active)
AC50 [6]: 0.227 µM (active)
AC50 [7]: 0.257 µM (active)
AC50 [8]: 1.16 µM (active)

CCc1cccc(C)c1NC(=O)c1ccc(CN2CCc3ccccc3C2)cc1
IC50 [9]: 3.88 µM (active)
IC50 [10]: 7.94 µM (active)

O=C(Nc1cccc(C(=O)O)c1)Nc1ccc2c(c1)OCO2
AC50 [11]: 1.47 µM (active)
AC50 [12]: 5.37 µM (active)
IC50 [13]: > 80 µM (inactive)
AC50 [14]: 2.74 µM (active)
AC50 [15]: 1.53 µM (active)
AC50 [16]: 1.97 µM (active)
AC50 [17]: 0.145 µM (active)
AC50 [18]: 1.81 µM (active)
IC50 [19]: 1.77 µM (active)
AC50 [20]: 5.13 µM (active)
IC50 [21]: > 39.8 µM (not active)
AC50 [22]: 3.34 µM (active)
AC50 [23]: 0.605 µM (active)
AC50 [24]: 0.333 µM (active)

COc1ccc(S(=O)(=O)N(C)C[C@H]2Oc3c(NC(=O)NC4CCCCC4)cccc3C(=O)N([C@H](C)CO)C[C@@H]2C)cc1
EC50 [25]: 10.4 µM (active)
EC50 [26]: 10.1 µM (active)

O=C(N1CCCC1)n1ncc(-c2ccc(Oc3ccccc3)cc2)n1
IC50 [27]: 0.002 µM (active)

C[C@@H]1CN([C@H](C)CO)C(=O)c2cccc(NC(=O)Nc3ccccc3)c2O[C@H]1CN(C)S(=O)(=O)c1ccc(Cl)cc1
AC50 [28]: 41.6 µM (active)
AC50 [29]: 22.4 µM (active)

O=C(CSc1ccccn1)NC1CCCCC1
CC50 [30]: > 100 µM (active)
CC50 [31]: > 100 µM (active)

NC(=O)c1cccc2[nH]c(-c3ccncc3)nc12
Ki [32]: 1 µM (active)

Cn1cccc1/C=C1\CCC/C(=C\c2cccn2C)C1=O
EC50 [33]: 23.9 µM (inactive)
IC50 [34]: 10.9 µM (inactive)
IC50 [35]: > 49.8 µM (inactive)
EC50 [36]: > 99 µM (inactive)

Cc1nc(=O)c2cc(CN(C)c3ccc(C(=O)N[C@@H](CCC(=O)O)C(=O)O)s3)ccc2[nH]1 [RALTITREXED]
EC50 [37]: > 150 µM (not active)
EC50 [38]: > 150 µM (inconclusive)
EC50 [39]: > 133 µM (inactive)
EC50 [40]: > 150 µM (inconclusive)
EC50 [41]: 0.192 µM (inconclusive)

Source: ChEMBL document CHEMBL1201862, “PubChem BioAssay data set” (2004)
